Assay results reported in ChEMBL document CHEMBL1201862, “PubChem BioAssay data set” (2004).
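Step 1: Grow cells in 96-well plates. Step 2: Expose to compound for 48 hours at 5 concentrations. Step 3: Interpolate endpoints linearly; if unreached, use highest concentration. Here, GI50 denotes the concentration required for 50% inhibition of growth.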 Activity calls are given as the source filed them. Rule as the data show it: active = GI50 up to about 1.1 µM and inactive = higher.

How the values were obtained:
Test in all cases: NCI-60 cell line screen, 48 h
MCF7 = test system: MCF7
UO-31 = test system: UO-31
CCRF-CEM = test system: CCRF-CEM
A549 = test system: A549
LOX IMVI = test system: LOX IMVI
PC-3 = test system: PC-3
NCI-H460 = test system: NCI-H460
Hs-578T = test system: Hs-578T
SN12C = test system: SN12C
COLO 205 = test system: COLO 205
HOP-92 = test system: HOP-92
SNB-75 = test system: SNB-75
DU-145 = test system: DU-145
K562 = test system: K562
MOLT-4 = test system: MOLT-4
UACC-62 = test system: UACC-62
RXF 393 = test system: RXF 393
SW-620 = test system: SW-620
SK-MEL-28 = test system: SK-MEL-28
A498 = test system: A498

Measured: GI50

Cc1ccc(S(=O)(=O)NC(=O)NC(C(=O)O)C(C)O)cc1 (centres undefined)
inactive: MCF7 > 100 µM | UO-31 > 100 µM | CCRF-CEM > 100 µM | A549 > 100 µM | LOX IMVI > 100 µM | PC-3 > 100 µM | NCI-H460 > 100 µM | Hs-578T > 100 µM | SN12C > 100 µM | COLO 205 > 100 µM | HOP-92 > 100 µM | SNB-75 33.3 µM | DU-145 > 100 µM | K562 > 100 µM | MOLT-4 > 100 µM | UACC-62 > 100 µM | RXF 393 > 100 µM | SW-620 > 100 µM | SK-MEL-28 > 100 µM

CCOC(=O)c1ccc(C(=O)/C(C(C)=O)=C2\CCCN2C)n1C
inactive: MCF7 61.7 µM | UO-31 > 100 µM | A498 65.8 µM | CCRF-CEM 52.5 µM | A549 > 100 µM | LOX IMVI 53.8 µM | PC-3 > 100 µM | NCI-H460 > 100 µM | Hs-578T > 100 µM | SN12C > 100 µM | COLO 205 > 100 µM | SNB-75 10.9 µM | DU-145 > 100 µM | K562 62.7 µM | MOLT-4 23.1 µM | UACC-62 49.1 µM | RXF 393 29.5 µM | SW-620 69.7 µM | SK-MEL-28 > 100 µM

CC1(C)[C@@H]2CC[C@]1(C)[C@H](OC(=O)/C=C/c1ccccc1)C2
inactive: MCF7 16.7 µM | UO-31 19.2 µM | A498 18.3 µM | CCRF-CEM 20.4 µM | A549 30.8 µM | LOX IMVI 21.3 µM | PC-3 23.4 µM | NCI-H460 29 µM | Hs-578T 19.5 µM | SN12C 18.8 µM | COLO 205 17.1 µM | SNB-75 16.2 µM | DU-145 19.4 µM | K562 19.9 µM | UACC-62 21.2 µM | RXF 393 16.9 µM | SW-620 15.5 µM | SK-MEL-28 19 µM

COc1ccc(/N=N/c2c(C)c(C#N)c(=S)n(C3OC(CO)C(O)C(O)C3O)c2C)cc1 (centres undefined)
inactive: MCF7 33 µM | UO-31 41.9 µM | CCRF-CEM 23.7 µM | A549 52.1 µM | LOX IMVI 56.4 µM | PC-3 31.5 µM | NCI-H460 35 µM | Hs-578T 41.4 µM | COLO 205 58.3 µM | HOP-92 16.9 µM | SNB-75 83.6 µM | DU-145 44.7 µM | K562 29 µM | MOLT-4 21.8 µM | UACC-62 30.4 µM | RXF 393 > 100 µM | SW-620 44.1 µM | SK-MEL-28 30.8 µM
